This experiment deals with human H-PGDS (Homo sapiens, UniProt O60760). The experiment can be described thus: Hematopoietic prostaglandin D synthase (H-PGDS) inhibiting action, [14C]PGH2 to PGD2 conversion, TLC radioassay. In kind it is biochemical. The conditions noted are these: compound 0.1 μM; inhibition rate relative to solvent control group; [14C] prostaglandin H2 10 μM, 25° C.; read-out: H-PGDS inh. (% at 0.1 μM). The method, then: The test was carried out according to the method of Urade, Y. et al. (J. Biol. Chem., 262, 3820-3825, (1987)). More specifically, a reaction mixture (49 μL) containing 100 mM Tris-HCl (pH 8.0), 1 mM reduced form glutathione, 0.1 mg/mL γ-globulin, human H-PGDS (q.s.), and a compound (0.1 μM) was preincubated at 25° C. for 5 minutes. A DMSO solution (final concentration: 1%) was added to the solvent control group. Subsequently, 1 μL of [^14C] prostaglandin H2 (final concentration: 10 μM) was added to start the reaction. One minute after the start of the reaction, 250 μL of a reaction stopper solution (diethylether/methanol/1M citric acid (30/4/1)) cooled with ice was added to stop the reaction. After the reaction was stopped, 50 μL of the upper layer portion (organic solvent phase) was applied to a TLC plate and developed at −20° C. for 45 minutes (developing solvent: diethylether/methanol/acetic acid (90/2/1)). After the TLC plate was dried and exposed to an imaging plate for 1 to 24 hours, the radioactivity corresponding to prostaglandin D2 (PGD2) was analyzed using an image analyzer (produced by Fujifilm Corporation). The area (%) occupied by the PGD2 band per lane and the inhibition rate (%) of each Example compound at 0.1 μM relative to the control group in each experiment were calculated.
Sequence of human H-PGDS (O60760 whole entry): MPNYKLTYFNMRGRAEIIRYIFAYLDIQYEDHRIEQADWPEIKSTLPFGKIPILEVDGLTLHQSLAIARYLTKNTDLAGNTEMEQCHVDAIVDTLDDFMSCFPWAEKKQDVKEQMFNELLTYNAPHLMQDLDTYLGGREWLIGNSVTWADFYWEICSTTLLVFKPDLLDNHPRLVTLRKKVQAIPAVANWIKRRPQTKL

As for `O=C(Nc1nc2ccc(Br)cc2s1)N1CCC(=Cc2ccccn2)CC1` [Example 1, N-(6-bromobenzo[d]thiazol-2-yl)-4-(pyridin-2-ylmethylene)-piperidine-1-carboxamide], the inhibition at 0.1 µM came out at 70.9%. As to `O=C(Nc1nc2ccc(-c3cccnc3)cc2s1)N1CCC(=Cc2ccccn2)CC1` [Example 3, N-(6-(pyridin-3-yl)-benzo[d]thiazol-2-yl)-4-(pyridin-2-ylmethylene)-piperidine-1-carboxamide], the inhibition at 0.1 µM worked out at 85.7%. The result for `Cc1noc(C)c1-c1ccc2nc(NC(=O)N3CCC(=Cc4ccccn4)CC3)sc2c1` [Example 4, N-(6-(3,5-dimethylisoxazol-4-yl)-benzo[d]thiazol-2-yl)-4-(pyridin-2-ylmethylene)-piperidine-1-carboxamide] reads 62.9%; that for `O=C(Nc1nc2ccc(-c3ccncc3)cc2s1)N1CCC(=Cc2ccccn2)CC1` [Example 5, N-(6-(pyridin-4-yl)-benzo[d]thiazol-2-yl)-4-(pyridin-2-ylmethylene)-piperidine-1-carboxamide], 77.8%.

On to `O=C(Nc1nc2ccc(-c3cncnc3)cc2s1)N1CCC(=Cc2ccccn2)CC1` [Example 6, N-(6-(pyrimidin-5-yl)-benzo[d]thiazol-2-yl)-4-(pyridin-2-ylmethylene)-piperidine-1-carboxamide], for which the inhibition at 0.1 µM was found to be 78.8%. In the case of `COc1ccc(-c2ccc3nc(NC(=O)N4CCC(=Cc5ccccn5)CC4)sc3c2)cn1` [Example 7, N-(6-(2-methoxypyridin-5-yl)-benzo[d]thiazol-2-yl)-4-(pyridin-2-ylmethylene)-piperidine-1-carboxamide] it was 74.2%. In the case of `O=C(Nc1nc2ccc(-c3cccs3)cc2s1)N1CCC(=Cc2ccccn2)CC1` [Example 8, N-(6-(thiophen-2-yl)-benzo[d]thiazol-2-yl)-4-(pyridin-2-ylmethylene)-piperidine-1-carboxamide] it was 80%; in that of `COc1ncccc1-c1ccc2nc(NC(=O)N3CCC(=Cc4ccccn4)CC3)sc2c1` [Example 9, N-(6-(2-methoxypyridin-3-yl)-benzo[d]thiazol-2-yl)-4-(pyridin-2-ylmethylene)-piperidine-1-carboxamide], 76.6%; in that of `Nc1ccc2nc(NC(=O)N3CCC(=Cc4ccccn4)CC3)sc2c1` [Example 10, N-(6-aminobenzo[d]thiazol-2-yl)-4-(pyridin-2-ylmethylene)-piperidine-1-carboxamide], 61.9%. Turning to `O=C(Nc1ccc2nc(NC(=O)N3CCC(=Cc4ccccn4)CC3)sc2c1)N1CCOCC1` [Example 11, N-(2-(4-(pyridin-2-ylmethylene)piperidine-1-carboxamido)benzo[d]thiazol-6-yl)morpholine-4-carboxamide], the inhibition at 0.1 µM was 52.4%.

`O=C(Nc1ccc(CCn2ccnn2)cc1)c1cnc(NC(=O)N2CCC(=Cc3ccccn3)CC2)s1` [Example 14, N-(4-(2-(1H-1,2,3-triazol-1-yl)ethyl)phenyl)-2-(4-(pyridin-2-ylmethylene)piperidine-1-carboxamido)thiazole-5-carboxamide]: the inhibition at 0.1 µM is 53.9%.

Regarding `O=C(Nc1ccc(N2CCCCC2)cc1)c1cnc(NC(=O)N2CCC(=Cc3ccccn3)CC2)s1` [Example 16, N-(4-(piperidin-1-yl)phenyl)-2-(4-(pyridin-2-ylmethylene)piperidine-1-carboxamido)thiazole-5-carboxamide], the inhibition at 0.1 µM was found to be 52.7%. In the case of `O=C(Nc1ncc(C(=O)N2CCCCC2)s1)N1CCC(=Cc2ccccn2)CC1` [Example 17, N-(5-(piperidin-1-yl-carbonyl)thiazol-2-yl)-4-(pyridin-2-ylmethylene)piperidine-1-carboxamide] it was 65%; in that of `O=C(O)c1ccc(NC(=O)c2cnc(NC(=O)N3CCC(=Cc4ccccn4)CC3)s2)cc1` [Example 18, 4-(2-(4-(pyridin-2-ylmethylene)piperidine-1-carboxamido)thiazole-5-carboxamido)benzoic acid], 65.1%; in that of `O=C(O)c1ccc(-c2cnc(NC(=O)N3CCC(=Cc4ccccn4)CC3)s2)cc1` [Example 20, 4-(2-(4-(pyridin-2-ylmethylene)piperidine-1-carboxamido)thiazol-5-yl)benzoic acid], 61.4%. The result for `O=C(Nc1nccs1)c1ccc(-c2cnc(NC(=O)N3CCC(=Cc4ccccn4)CC3)s2)cc1` [Example 22, 4-(pyridin-2-ylmethylene)-N-(5-(4-(thiazol-2-ylcarbamoyl)phenyl)thiazol-2-yl)piperidine-1-carboxamide] reads 66.5%; that for `CS(=O)(=O)NC(=O)c1ccc(-c2cnc(NC(=O)N3CCC(=Cc4ccccn4)CC3)s2)cc1` [Example 23, N-(5-(4-(methylsulfonylcarbamoyl)phenyl)thiazol-2-yl)-4-(pyridin-2-ylmethylene)piperidine-1-carboxamide], 65.9%. Regarding `O=C(NS(=O)(=O)c1ccccc1)c1ccc(-c2cnc(NC(=O)N3CCC(=Cc4ccccn4)CC3)s2)cc1` [Example 24, N-(5-(4-(phenylsulfonylcarbamoyl)phenyl)thiazol-2-yl)-4-(pyridin-2-ylmethylene)piperidine-1-carboxamide], the inhibition at 0.1 µM is 68.2%. The result for `O=C(Nc1ccc(-c2cnc(NC(=O)N3CCC(=Cc4ccccn4)CC3)s2)cc1)c1cscn1` [Example 26, N-(4-(2-(4-(pyridin-2-ylmethylene)piperidine-1-carboxamido)thiazol-5-yl)phenyl)thiazole-4-carboxamide] reads 57.4%; that for `O=C(O)c1ccc(-c2cnc(NC(=O)N3CCC(=Cc4ccccn4)CC3)s2)nc1` [Example 27, 6-(2-(4-(pyridin-2-ylmethylene)piperidine-1-carboxamido)thiazol-5-yl)nicotinic acid], 50.2%. The result for `O=C(O)c1ccc(-c2ccc(NC(=O)N3CCC(=Cc4ccccn4)CC3)cn2)cc1` [Example 28, 4-(5-(4-(pyridin-2-ylmethylene)piperidine-1-carboxamido)pyridin-2-yl)benzoic acid] reads 53.2%; that for `O=C(Nc1nccs1)c1ccc(-c2ccc(NC(=O)N3CCC(=Cc4ccccn4)CC3)cn2)cc1` [Example 29, 4-(pyridin-2-ylmethylene)-N-(6-(4-(thiazol-2-ylcarbamoyl)phenyl)pyridin-3-yl)piperidine-1-carboxamide], 78.8%. With `O=C(NC1CC1)c1ccc(-c2ccc(NC(=O)N3CCC(=Cc4ccccn4)CC3)cn2)cc1` [Example 30, N-(6-(4-(cyclopropylcarbamoyl)phenyl)pyridin-3-yl)-4-(pyridin-2-ylmethylene)piperidine-1-carboxamide], the inhibition at 0.1 µM was 67.1%. With `CN(C)C(=O)c1ccc(-c2ccc(NC(=O)N3CCC(=Cc4ccccn4)CC3)cn2)cc1` [Example 31, N-(6-(4-(dimethylcarbamoyl)phenyl)pyridin-3-yl)-4-(pyridin-2-ylmethylene)piperidine-1-carboxamide], the inhibition at 0.1 µM is 52.9%. The result for `CS(=O)(=O)NC(=O)c1ccc(-c2ccc(NC(=O)N3CCC(=Cc4ccccn4)CC3)cn2)cc1` [Example 32, N-(6-(4-(methylsulfonylcarbamoyl)phenyl)pyridin-3-yl)-4-(pyridin-2-ylmethylene)piperidine-1-carboxamide] reads 76.1%.

Values taken from US9181183B2, “Prostaglandin D synthase inhibitory piperidine compounds” (Taiho Pharmaceutical Co., Ltd., priority 2010, dated 2015).
